Results from patent US20220251084A1, “PROGRANULIN MODULATORS AND METHODS OF USING THE SAME” (ARKUDA THERAPEUTICS, priority 2019, published 2022).
Where a name gives a salt, the structure may show the parent alone.

System: progranulin (PGRN) secretion, BV-2 cells
Assay: PGRN assay: progranulin induction cellular assay (ELISA of secreted mouse PGRN)
Format: cell-based
Settings: secreted mouse PGRN in cell culture medium, ELISA
Outline: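 Progranulin induction measured in BV-2 cells plated at about 80% confluence the day before, given 1 h to attach, then incubated 16 h. Secreted mouse PGRN quantified by ELISA.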

[1] = Mus musculus, BV-2, PGRN assay, Table C
[2] = Mus musculus, BV-2, PGRN assay, Table D

Structure (SMILES) | EC50 [1] [nM] | EC50 [2] [nM] | further results
O=C(OC1CNC1)N1CCc2ccccc2[C@@H]1c1ccc(F)cc1 [Compound 2177] |  |  | EC50 (PGRN assay, Table C): > 3160 nM
O=C(NCC12CCN(CC1)CC2)N1CCc2ccccc2[C@@H]1c1ccc(F)cc1 [Compound 2178] | 590 |  | 
CN(CC1CCNCC1)C(=O)N1CCc2ccccc2[C@@H]1c1ccc(F)cc1 [Compound 2182, 1-(4-fluorophenyl)-N-methyl-N-(piperidin-4-ylmethyl)-3,4-dihydroisoquinoline-2(1H)-carboxamide] | > 10000 |  | 
CN(CC1CCNCC1)C(=O)N1CCc2ccccc2[C@H]1c1ccc(F)cc1 [Compound 2183, 1-(4-fluorophenyl)-N-methyl-N-(piperidin-4-ylmethyl)-3,4-dihydroisoquinoline-2(1H)-carboxamide] | 9600 |  | 
CN1CCN(C(=O)CC(=O)N2CCc3ccccc3[C@@H]2c2ccc(F)cc2)CC1 [Compound 2189, (S)-1-(1-(4-fluorophenyl)-3,4-dihydroisoquinolin-2(1H)-yl)-3-(4-methylpiperazin-1-yl) propane-1,3-dione] | 3320 |  | 
C#CCOc1ccc2c(c1)[C@H](c1ccc(F)cc1)N(C(=O)NCC13CCN(CC1)CC3)CC2 [Compound 2192, (S)-1-(4-fluorophenyl)-7-(prop-2-yn-1-yloxy)-N-(quinuclidin-4-ylmethyl)-3,4-dihydroisoquinoline-2(1H)-carboxamide] | > 10000 |  | 
O=C(NCC12CCN(CC1)C2)N1CCc2ccccc2[C@@H]1c1ccc(F)cc1 [Compound 2193, (S)—N-((1-azabicyclo[2.2.1]heptan-4-yl)methyl)-1-(4-fluorophenyl)-3,4-dihydroisoquinoline-2(1H)-carboxamide] | 2510 |  | 
C#CCN1CCC(COC(=O)N2CCc3ccccc3[C@@H]2c2ccc(F)cc2)CC1 [Compound 2194, (1-(prop-2-yn-1-yl)piperidin-4-yl)methyl (S)-1-(4-fluorophenyl)-3,4-dihydroisoquinoline-2(1H)-carboxylate] | 3200 |  | 
C#CCOCCN1CCC(COC(=O)N2CCc3ccccc3[C@@H]2c2ccc(F)cc2)CC1 [Compound 2196, (1-(2-(prop-2-yn-1-yloxy)ethyl)piperidin-4-yl)methyl (S)-1-(4-fluorophenyl)-3,4-dihydroisoquinoline-2(1H)-carboxylate] | > 10000 |  | 
C#CCOCCN1CCC(OC(=O)N2CCc3ccccc3[C@@H]2c2ccc(F)cc2)CC1 [Compound 2197, 1-(2-(prop-2-yn-1-yloxy)ethyl)piperidin-4-yl (S)-1-(4-fluorophenyl)-3,4-dihydroisoquinoline-2(1H)-carboxylate] | 1060 |  | 
O=C(N1CCc2ccccc2[C@@H]1c1ccc(F)cc1)C(F)(F)C1(O)CN2CCC1CC2 (stereo partly drawn) [Compound 2198, 2,2-difluoro-1-((S)-1-(4-fluorophenyl)-3,4-dihydroisoquinolin-2(1H)-yl)-2-(3-hydroxyquinuclidin-3-yl)ethan-1-one] | > 10000 |  | 
O=C(OCC[C@@H]1CN2CCC1CC2)N1CCc2ccccc2[C@@H]1c1ccc(F)cc1 [Compound 2206, 2-((S)-quinuclidin-3-yl)ethyl (S)-1-(4-fluorophenyl)-3,4-dihydroisoquinoline-2(1H)-carboxylate formate] |  | 1990 | 
O=C(NC1(C2CCNCC2)CC1)N1CCc2ccccc2[C@@H]1c1ccc(F)cc1 [Compound 2208] |  | 7220 | 
CN1[C@@H]2CC[C@H]1[C@@H](NC(=O)N1CCc3ccccc3[C@@H]1c1ccc(F)cc1)C2 [Compound 2224] |  | 480 | 
CN1[C@H]2CC[C@@H]1[C@@H](NC(=O)N1CCc3ccccc3[C@@H]1c1ccc(F)cc1)C2 [Compound 2226] |  | 2680 | 
CN1[C@@H]2CC[C@H]1[C@H](NC(=O)N1CCc3ccccc3[C@@H]1c1ccc(F)cc1)C2 [Compound 2227] |  | 4150 | 
CN1CC[C@H](NC(=O)N2CCc3ccccc3[C@@H]2c2ccc(F)cc2)C1 [Compound 2237, (S)-1-(4-fluorophenyl)-N—((S)-1-methylpyrrolidin-3-yl)-3,4-dihydroisoquinoline-2(1H)-carboxamide] |  | 430 | 
CN1CCC(NC(=O)N2CCc3ccccc3[C@@H]2c2ccc(F)cc2)CC1 [Compound 2238, (S)-1-(4-fluorophenyl)-N-(1-methylpiperidin-4-yl)-3,4-dihydroisoquinoline-2(1H)-carboxamide] |  | 720 | 

Now from value to compound, other results behind:

EC50 [1] [nM] | EC50 [2] [nM] | Structure (SMILES) | further results
120 |  | O=C(O[C@@H]1CCNC1)N1CCc2ccccc2[C@@H]1c1ccc(F)cc1 [Compound 2179, (1S)—((R)-pyrrolidin-3-yl)-1-(4-fluorophenyl)-3,4-dihydroisoquinoline-2(1H)-carboxylate] | 
83 |  | O=C(O[C@H]1CCNC1)N1CCc2ccccc2[C@@H]1c1ccc(F)cc1 [Compound 2180, (1S)—((S)-pyrrolidin-3-yl)-1-(4-fluorophenyl)-3,4-dihydroisoquinoline-2(1H)-carboxylate] | 
> 10000 |  | O=C(CCC1CCNCC1)N1CCc2ccccc2[C@@H]1c1ccc(F)cc1 [Compound 2184, (S)-1-(1-(4-fluorophenyl)-3,4-dihydroisoquinolin-2(1H)-yl)-3-(piperidin-4-yl)propan-1-one] | 
400 |  | O=C(C[C@H]1CCCNC1)N1CCc2ccccc2[C@@H]1c1ccc(F)cc1 [Compound 2187] | 
3210 |  | O=C(C[C@@H]1CCCNC1)N1CCc2ccccc2[C@@H]1c1ccc(F)cc1 [Compound 2188] | 
1700 |  | C#CCN1CCC(OC(=O)N2CCc3ccccc3[C@@H]2c2ccc(F)cc2)CC1 [Compound 2195, 1-(prop-2-yn-1-yl)piperidin-4-yl (S)-1-(4-fluorophenyl)-3,4-dihydroisoquinoline-2(1H)-carboxylate] | 
 | 650 | O=C(O[C@H]1C[N@]2CC[C@H]1C2)N1CCc2ccccc2[C@@H]1c1ccc(F)cc1 [Compound 2204] | 
 | 730 | O=C(NC[C@@H]1CNCCO1)N1CCc2ccccc2[C@@H]1c1ccc(F)cc1 [Compound 2209] | 
 | 2700 | CN1CCC(C2(OC(=O)N3CCc4ccccc4[C@@H]3c3ccc(F)cc3)CC2)CC1 [Compound 2215] | 
 | 2670 | O=C(NC[C@H]1CCCN1)N1CCc2ccccc2[C@@H]1c1ccc(F)cc1 [Compound 2216] | 
 | 3940 | O=C(NC[C@@H]1CCCN1)N1CCc2ccccc2[C@@H]1c1ccc(F)cc1 [Compound 2217] | 
 | 3950 | O=C(NC[C@@H]1CCCN1)N1CCc2ccccc2[C@H]1c1ccc(F)cc1 [Compound 2218] | 
 | 7830 | O=C(NC[C@@H]1CCCNC1)N1CCc2ccccc2[C@@H]1c1ccc(F)cc1 [Compound 2221] | 
 | 940 | O=C(N[C@H]1CCNC1)N1CCc2ccccc2[C@@H]1c1ccc(F)cc1 [Compound 2222] | 
 | 1580 | O=C(N[C@@H]1CCNC1)N1CCc2ccccc2[C@@H]1c1ccc(F)cc1 [Compound 2223] | 
 | 1070 | O=C(OC[C@@H]1CCNC1)N1CCc2ccccc2[C@@H]1c1ccc(F)cc1 [Compound 2230] | 
 | 1040 | O=C(NCC1(F)CNC1)N1CCc2ccccc2[C@@H]1c1ccc(F)cc1 [Compound 2231] | 
 | 1140 | O=C(OC[C@@H]1CCN1)N1CCc2ccccc2[C@@H]1c1ccc(F)cc1 [Compound 2239, (S)-(S)-azetidin-2-ylmethyl 1-(4-fluorophenyl)-3,4-dihydroisoquinoline-2(1H)-carboxylate] | 
 | 2390 | O=C(OC[C@H]1CCN1)N1CCc2ccccc2[C@@H]1c1ccc(F)cc1 [Compound 2240] | 
 | 8790 | O=C(O[C@H]1CNCC1(F)F)N1CCc2ccccc2[C@@H]1c1ccc(F)cc1 [Compound 2241] | 
